Experiment [1] deals with T1, SMARCA2 (Homo sapiens, UniProt P51531).
T1 construct: SMARCA2-HiBiT knock-in Hela monoclonal cell (CS302366); host or cells: HeLa monoclonal cells with heterozygous HiBiT knock-in at the endogenous SMARCA2 locus
As to the kind of experiment: SMARCA2 HiBiT degradation assay in HeLa cells. The class given is cell-based. The note with it: 18 hours, highest concentration 10 μM. A digest of the protocol: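 HeLa cells carrying a heterozygous C-terminal HiBiT knock-in on SMARCA2 were seeded at 2500 cells/well. They were treated with 3-fold dilution series, top concentration 10 μM, for 18 h at 37 °C. Remaining SMARCA2-HiBiT was measured by Nano-Glo HiBiT lytic luminescence after 30-60 min at RT, followed by curve fitting.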

Experiment [2] deals with T2, SMARCA4 (Homo sapiens, UniProt P51532).
T2 construct: SMARCA4-HiBiT knock-in Hela monoclonal cell (CS3023226); host or cells: HeLa monoclonal cells with heterozygous HiBiT knock-in at the endogenous SMARCA4 locus
As to the kind of experiment: SMARCA4 HiBiT degradation assay in HeLa cells. The class given is cell-based. To be noted: 18 hours, highest concentration 10 μM. A digest of the protocol:
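HeLa monoclonal cells with HiBiT knocked into SMARCA4 were seeded at 2500 cells/well, dosed with compound and incubated 18 hours at 37° C. HiBiT signal reported remaining SMARCA4 protein, and values came from curve fitting.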
For orientation: HiBiT is a short tag that completes a luciferase, so light tracks the accessible tagged protein.

T1 sequence (P51531 whole entry): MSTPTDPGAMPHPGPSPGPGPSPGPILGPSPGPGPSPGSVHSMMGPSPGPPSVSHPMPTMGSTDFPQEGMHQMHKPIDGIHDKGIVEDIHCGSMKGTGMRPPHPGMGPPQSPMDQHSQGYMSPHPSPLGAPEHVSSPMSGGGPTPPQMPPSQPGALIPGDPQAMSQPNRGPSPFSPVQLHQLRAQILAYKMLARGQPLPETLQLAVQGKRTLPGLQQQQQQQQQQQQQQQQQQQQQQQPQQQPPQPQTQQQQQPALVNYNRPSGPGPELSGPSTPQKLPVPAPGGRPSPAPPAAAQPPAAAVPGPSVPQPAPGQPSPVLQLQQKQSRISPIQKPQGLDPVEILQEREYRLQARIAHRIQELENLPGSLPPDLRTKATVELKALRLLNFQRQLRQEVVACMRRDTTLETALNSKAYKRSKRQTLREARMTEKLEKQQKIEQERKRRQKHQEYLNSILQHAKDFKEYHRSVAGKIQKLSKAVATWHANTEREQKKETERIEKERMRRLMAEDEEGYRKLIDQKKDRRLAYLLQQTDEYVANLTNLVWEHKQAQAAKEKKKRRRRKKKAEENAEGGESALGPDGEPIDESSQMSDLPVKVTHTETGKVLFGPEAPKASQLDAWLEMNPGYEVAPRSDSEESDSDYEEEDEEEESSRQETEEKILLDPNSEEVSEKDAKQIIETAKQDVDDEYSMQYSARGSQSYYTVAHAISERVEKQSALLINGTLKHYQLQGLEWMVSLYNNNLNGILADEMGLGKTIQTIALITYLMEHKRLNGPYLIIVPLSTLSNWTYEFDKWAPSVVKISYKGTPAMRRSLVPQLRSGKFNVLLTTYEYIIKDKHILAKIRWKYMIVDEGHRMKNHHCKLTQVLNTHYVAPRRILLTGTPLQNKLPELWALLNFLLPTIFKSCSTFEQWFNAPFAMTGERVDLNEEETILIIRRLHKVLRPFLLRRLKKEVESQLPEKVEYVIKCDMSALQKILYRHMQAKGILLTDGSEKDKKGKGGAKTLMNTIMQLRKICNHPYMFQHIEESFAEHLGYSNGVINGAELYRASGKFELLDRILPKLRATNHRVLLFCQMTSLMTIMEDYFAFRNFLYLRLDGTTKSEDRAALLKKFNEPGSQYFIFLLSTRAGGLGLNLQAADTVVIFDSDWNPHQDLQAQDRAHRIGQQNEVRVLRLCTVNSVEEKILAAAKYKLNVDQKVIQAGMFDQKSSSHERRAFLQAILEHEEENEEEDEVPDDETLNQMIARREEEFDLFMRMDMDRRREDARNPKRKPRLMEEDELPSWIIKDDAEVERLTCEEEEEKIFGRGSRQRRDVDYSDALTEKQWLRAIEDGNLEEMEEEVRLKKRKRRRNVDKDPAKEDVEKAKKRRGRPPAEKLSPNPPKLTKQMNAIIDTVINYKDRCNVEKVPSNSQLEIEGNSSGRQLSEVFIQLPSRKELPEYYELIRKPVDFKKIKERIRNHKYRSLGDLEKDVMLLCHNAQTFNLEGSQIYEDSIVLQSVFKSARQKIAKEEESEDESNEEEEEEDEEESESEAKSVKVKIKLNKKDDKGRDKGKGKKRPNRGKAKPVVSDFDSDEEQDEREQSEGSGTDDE
T2 sequence (P51532 whole entry): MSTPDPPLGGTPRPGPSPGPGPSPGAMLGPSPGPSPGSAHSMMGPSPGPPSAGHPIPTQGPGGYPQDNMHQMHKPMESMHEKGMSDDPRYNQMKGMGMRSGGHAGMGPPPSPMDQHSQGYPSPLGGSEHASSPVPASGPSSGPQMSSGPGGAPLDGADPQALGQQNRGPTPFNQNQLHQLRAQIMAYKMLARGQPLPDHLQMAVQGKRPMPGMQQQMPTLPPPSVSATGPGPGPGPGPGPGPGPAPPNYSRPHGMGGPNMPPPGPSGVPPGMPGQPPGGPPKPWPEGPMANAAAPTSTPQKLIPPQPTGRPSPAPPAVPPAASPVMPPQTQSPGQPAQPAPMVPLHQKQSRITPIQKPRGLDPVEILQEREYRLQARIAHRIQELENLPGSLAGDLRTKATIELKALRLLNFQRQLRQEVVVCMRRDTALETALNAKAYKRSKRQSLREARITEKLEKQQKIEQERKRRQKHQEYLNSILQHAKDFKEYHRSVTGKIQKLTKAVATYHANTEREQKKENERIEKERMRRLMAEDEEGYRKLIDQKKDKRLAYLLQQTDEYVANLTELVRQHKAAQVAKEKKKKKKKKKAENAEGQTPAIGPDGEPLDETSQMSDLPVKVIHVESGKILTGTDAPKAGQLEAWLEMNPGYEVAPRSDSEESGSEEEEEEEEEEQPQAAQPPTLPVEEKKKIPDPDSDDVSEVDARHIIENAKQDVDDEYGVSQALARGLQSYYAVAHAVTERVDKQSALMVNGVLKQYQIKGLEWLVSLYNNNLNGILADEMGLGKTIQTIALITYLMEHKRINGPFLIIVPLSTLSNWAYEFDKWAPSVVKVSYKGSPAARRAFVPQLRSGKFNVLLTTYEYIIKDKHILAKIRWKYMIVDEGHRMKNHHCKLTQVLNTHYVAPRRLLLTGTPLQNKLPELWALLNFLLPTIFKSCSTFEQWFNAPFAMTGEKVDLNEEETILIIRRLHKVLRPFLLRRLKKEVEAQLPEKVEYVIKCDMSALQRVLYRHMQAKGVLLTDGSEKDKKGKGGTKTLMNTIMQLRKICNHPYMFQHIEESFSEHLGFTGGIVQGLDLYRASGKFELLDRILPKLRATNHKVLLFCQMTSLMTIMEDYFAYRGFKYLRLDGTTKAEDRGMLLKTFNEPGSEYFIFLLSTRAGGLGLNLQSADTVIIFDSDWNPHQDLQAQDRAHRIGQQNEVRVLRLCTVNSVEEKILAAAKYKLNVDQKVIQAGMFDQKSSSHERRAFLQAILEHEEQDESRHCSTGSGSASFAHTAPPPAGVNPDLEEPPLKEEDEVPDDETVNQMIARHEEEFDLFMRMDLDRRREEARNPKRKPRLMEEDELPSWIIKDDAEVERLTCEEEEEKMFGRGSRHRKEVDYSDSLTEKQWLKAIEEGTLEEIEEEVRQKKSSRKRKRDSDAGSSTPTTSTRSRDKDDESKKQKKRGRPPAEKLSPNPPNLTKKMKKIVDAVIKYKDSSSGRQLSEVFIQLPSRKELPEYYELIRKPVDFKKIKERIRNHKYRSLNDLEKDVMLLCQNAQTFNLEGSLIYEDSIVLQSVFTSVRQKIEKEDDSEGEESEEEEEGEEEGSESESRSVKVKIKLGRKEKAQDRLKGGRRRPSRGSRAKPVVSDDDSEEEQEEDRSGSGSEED

As usually defined, the DC50 is the midpoint of the concentration-degradation curve. Read a high DC50 as a less potent degrader. Usually Dmax stands for the largest share of the target that was removed. Low values mean a partial loss of target, high ones a fuller loss of target. In experiment [1], `CC[C@@]12CNc3nnc(-c4cccc(F)c4O)cc3N1C[C@H](Oc1cnc(CN3CCN(c4ccc5c(c4)C(=O)N([C@H]4CCC(=O)NC4=O)C5)CC3)c(C)n1)C2` [Example 57, (S)-3-(6-(4-((5-(((6aR,8R)-6a-ethyl-2-(3-fluoro-2-hydroxyphenyl)-5,6,6a,7,8,9-hexahydropyrrolo[1′,2′:4,5]pyrazino[2,3-c]pyridazin-8-yl)oxy)-3-methylpyrazin-2-yl)methyl)piperazin-1-yl)-1-oxoisoindolin-2-yl)piperidine-2,6-dione] gave a 50% degradation concentration (DC50) of less than 100 nM and a maximal degradation (Dmax) of more than 75%. For the same compound, in experiment [2], the 50% degradation concentration (DC50) was in the range of 100 to 1000 nM and the Dmax was less than 50%.

In experiment [1], `Cc1cc(O[C@H]2CN3c4cc(-c5cccc(F)c5O)nnc4NC[C@@]3(CF)C2)ncc1CN1CCN(c2ccc3c(c2)C(=O)N([C@H]2CCC(=O)NC2=O)C3)CC1` [Example 58, (S)-3-(6-(4-((6-(((6aR,8R)-2-(3-Fluoro-2-hydroxyphenyl)-6a-(fluoromethyl)-5,6,6a,7,8,9-hexahydropyrrolo[1′,2′:4,5]pyrazino[2,3-c]pyridazin-8-yl)oxy)-4-methylpyridin-3-yl)methyl)piperazin-1-yl)-1-oxoisoindolin-2-yl)piperidine-2,6-dione] registered a DC50 of less than 100 nM and a Dmax of more than 75%. For the same compound, in experiment [2], the DC50 is more than 1000 nM and the Dmax was less than 50%.

For the compound `CC[C@@]12CNc3nnc(-c4cccc(F)c4O)cc3N1C[C@H](Oc1nc(C)c(CN3CCN(c4ccc5c(c4)C(=O)N([C@H]4CCC(=O)NC4=O)C5)CC3)cc1C#N)C2` [Example 59, 5-((4-(2-((S)-2,6-dioxopiperidin-3-yl)-3-oxoisoindolin-5-yl)piperazin-1-yl)methyl)-2-(((6aR,8R)-6a-ethyl-2-(3-fluoro-2-hydroxyphenyl)-5,6,6a,7,8,9-hexahydropyrrolo[1′,2′:4,5]pyrazino[2,3-c]pyridazin-8-yl)oxy)-6-methylnicotinonitrile], in experiment [1], the DC50 is less than 100 nM and the greatest degradation seen (Dmax) was more than 75%. Further, in experiment [2], the half-maximal degradation concentration (DC50) was less than 100 nM and the greatest degradation seen (Dmax) lay within 50 to 75%.

In experiment [1], `CC[C@@]12CNc3nnc(-c4cccc(F)c4O)cc3N1C[C@H](Sc1cc(C)c(CN3CCN(c4ccc5c(c4)C(=O)N([C@H]4CCC(=O)NC4=O)C5)CC3)cn1)C2` [Example 60, 3-(6-(4-((6-(((6aR,8R)-6a-ethyl-2-(3-fluoro-2-hydroxyphenyl)-5,6,6a,7,8,9-hexahydropyrrolo[1′,2′:4,5]pyrazino[2,3-c]pyridazin-8-yl)thio)-4-methylpyridin-3-yl)methyl)piperazin-1-yl)-1-oxoisoindolin-2-yl)piperidine-2,6-dione] gave a 50% degradation concentration (DC50) of less than 100 nM and a Dmax of more than 75%. In experiment [2], this compound had a DC50 of less than 100 nM and a maximal degradation (Dmax) of 50 to 75%.

In experiment [1], `CC[C@@]12CNc3nnc(-c4cccc(F)c4O)cc3N1C[C@H](Oc1ncc(CN3CCN(c4ccc5c(c4)C(=O)N(C4CCC(=O)NC4=O)C5)CC3)c(C)c1F)C2` (stereo partly drawn) [Example 61, 3-(6-(4-((6-(((6aR,8R)-6a-ethyl-2-(3-fluoro-2-hydroxyphenyl)-5,6,6a,7,8,9-hexahydropyrrolo[1′,2′:4,5]pyrazino[2,3-c]pyridazin-8-yl)oxy)-5-fluoro-4-methylpyridin-3-yl)methyl)piperazin-1-yl)-1-oxoisoindolin-2-yl)piperidine-2,6-dione] had a 50% degradation concentration (DC50) of less than 100 nM and a Dmax of more than 75%. Moreover, in experiment [2], the DC50 is less than 100 nM and the Dmax was 50 to 75%.

With `CC[C@@]12CNc3nnc(-c4cccc(F)c4O)cc3N1C[C@H](Oc1cc(C)c(CN3CCN(c4ccc5c(c4)C(=O)N(C4CCC(=O)NC4=O)C5)CC3)c(C)n1)C2` (stereo partly drawn) [Example 62, 3-(6-(4-((6-(((6aR,8R)-6a-ethyl-2-(3-fluoro-2-hydroxyphenyl)-5,6,6a,7,8,9-hexahydropyrrolo[1′,2′:4,5]pyrazino[2,3-c]pyridazin-8-yl)oxy)-2,4-dimethylpyridin-3-yl)methyl)piperazin-1-yl)-1-oxoisoindolin-2-yl)piperidine-2,6-dione], in experiment [1], the 50% degradation concentration (DC50) is less than 100 nM and the Dmax is more than 75%. For the same compound, in experiment [2], the DC50 lay within 100 to 1000 nM and the greatest degradation seen (Dmax) is less than 50%.

`CC[C@@]12CNc3nnc(-c4cc(F)cc(F)c4O)cc3N1C[C@H](Oc1ccc(CN3CCN(c4ccc5c(c4)C(=O)N(C4CCC(=O)NC4=O)C5)CC3)cn1)C2` (stereo partly drawn) [Example 63, 3-(6-(4-((6-(((6aR,8R)-2-(3,5-difluoro-2-hydroxyphenyl)-6a-ethyl-5,6,6a,7,8,9-hexahydropyrrolo[1′,2′:4,5]pyrazino[2,3-c]pyridazin-8-yl)oxy)pyridin-3-yl)methyl)piperazin-1-yl)-1-oxoisoindolin-2-yl)piperidine-2,6-dione]: in experiment [1], the half-maximal degradation concentration (DC50) is less than 100 nM and the maximal degradation (Dmax) is more than 75%. Also, in experiment [2], the half-maximal degradation concentration (DC50) is less than 100 nM and the Dmax is more than 75%.

In experiment [1], `Cc1nc(CN2CCN(c3ccc4c(c3)C(=O)N([C@H]3CCC(=O)NC3=O)C4)CC2)cnc1O[C@H]1CN2c3cc(-c4cccc(F)c4O)nnc3NC[C@@]2(CF)C1` [Example 64, (S)-3-(6-(4-((5-(((6aR,8R)-2-(3-fluoro-2-hydroxyphenyl)-6a-(fluoromethyl)-5,6,6a,7,8,9-hexahydropyrrolo[1′,2′:4,5]pyrazino[2,3-c]pyridazin-8-yl)oxy)-6-methylpyrazin-2-yl)methyl)piperazin-1-yl)-1-oxoisoindolin-2-yl)piperidine-2,6-dione] gave a half-maximal degradation concentration (DC50) of less than 100 nM and a Dmax of more than 75%. In experiment [2], this compound registered a DC50 of 100 to 1000 nM and a Dmax of less than 50%.

Consider `Cc1nc(CN2CCC(c3ccc4c(c3)C(=O)N([C@H]3CCC(=O)NC3=O)C4)CC2)cnc1O[C@H]1CN2c3cc(-c4cccc(F)c4O)nnc3NC[C@@]2(CF)C1` [Example 65, (S)-3-(6-(1-((5-(((6aR,8R)-2-(3-Fluoro-2-hydroxyphenyl)-6a-(fluoromethyl)-5,6,6a,7,8,9-hexahydropyrrolo[1′,2′:4,5]pyrazino[2,3-c]pyridazin-8-yl)oxy)-6-methylpyrazin-2-yl)methyl)piperidin-4-yl)-1-oxoisoindolin-2-yl)piperidine-2,6-dione], for which, in experiment [1], the DC50 is less than 100 nM and the Dmax was more than 75%. In experiment [2], this compound displayed a half-maximal degradation concentration (DC50) of 100 to 1000 nM and a Dmax of less than 50%.

In experiment [1], `Cc1nc(CN2CCN(c3ccc4c(c3)C(=O)N([C@H]3CCC(=O)NC3=O)C4)CC2)cnc1O[C@H]1CN2c3cc(-c4cccc(F)c4O)nnc3NC[C@]2(CF)C1` [Example 66, (S)-3-(6-(4-((5-(((6aS,8R)-2-(3-fluoro-2-hydroxyphenyl)-6a-(fluoromethyl)-5,6,6a,7,8,9-hexahydropyrrolo[1′,2′:4,5]pyrazino[2,3-c]pyridazin-8-yl)oxy)-6-methylpyrazin-2-yl)methyl)piperazin-1-yl)-1-oxoisoindolin-2-yl)piperidine-2,6-dione] registered a 50% degradation concentration (DC50) of less than 100 nM and a maximal degradation (Dmax) of more than 75%. In experiment [2], this compound came in with a DC50 of less than 100 nM and a Dmax of 50 to 75%.

On to `CCc1nc(CN2CCN(c3ccc4c(c3)C(=O)N([C@H]3CCC(=O)NC3=O)C4)CC2)cnc1O[C@H]1CN2c3cc(-c4cccc(F)c4O)nnc3NC[C@@]2(CF)C1` [Example 67, (S)-3-(6-(4-((6-ethyl-5-(((6aR,8R)-2-(3-fluoro-2-hydroxyphenyl)-6a-(fluoromethyl)-5,6,6a,7,8,9-hexahydropyrrolo[1′,2′:4,5]pyrazino[2,3-c]pyridazin-8-yl)oxy)pyrazin-2-yl)methyl)piperazin-1-yl)-1-oxoisoindolin-2-yl)piperidine-2,6-dione], for which, in experiment [1], the DC50 was less than 100 nM and the Dmax is more than 75%. In addition, in experiment [2], the half-maximal degradation concentration (DC50) was more than 1000 nM and the Dmax was less than 50%.

As for `CCc1nc(CN2CCC(c3ccc4c(c3)C(=O)N([C@H]3CCC(=O)NC3=O)C4)CC2)cnc1O[C@H]1CN2c3cc(-c4cccc(F)c4O)nnc3NC[C@@]2(CF)C1` [Example 68, (S)-3-(6-(1-((6-ethyl-5-(((6aR,8R)-2-(3-fluoro-2-hydroxyphenyl)-6a-(fluoromethyl)-5,6,6a,7,8,9-hexahydropyrrolo[1′,2′:4,5]pyrazino[2,3-c]pyridazin-8-yl)oxy)pyrazin-2-yl)methyl)piperidin-4-yl)-1-oxoisoindolin-2-yl)piperidine-2,6-dione], the results for the DC50 in experiment [1] and in experiment [2] were less than 100 nM and more than 1000 nM, respectively. Also, the figures for the Dmax in experiment [1] and in experiment [2] were more than 75% and less than 50%, respectively.

As for `Cc1nc(O[C@H]2CN3c4cc(-c5cccc(F)c5O)nnc4NC[C@]3(CF)C2)c(F)cc1CN1CCN(c2ccc3c(c2)C(=O)N([C@H]2CCC(=O)NC2=O)C3)CC1` [Example 69, (S)-3-(6-(4-((5-fluoro-6-(((6aS,8R)-2-(3-fluoro-2-hydroxyphenyl)-6a-(fluoromethyl)-5,6,6a,7,8,9-hexahydropyrrolo[1′,2′:4,5]pyrazino[2,3-c]pyridazin-8-yl)oxy)-2-methylpyridin-3-yl)methyl)piperazin-1-yl)-1-oxoisoindolin-2-yl)piperidine-2,6-dione], the DC50 in experiment [1] and in experiment [2] was less than 100 nM in each case. The Dmax in experiment [1] and in experiment [2] was more than 75% throughout.
